# Like-named read-outs stand apart in the source and are kept apart here.
# How the values were obtained:
# 5-HT2A = 5-HT2A (Homo sapiens, UniProt P28223); assay: Cerep receptor radioligand-binding assay
# Procedure: […]; Ki (inhibition constant) was calculated by using the Cheng-Prusoff equation from the mean of duplicate determinations in cell-based receptor radioligand-binding assays. Cerep in vitro pharmacology profiling service was used (see the Supplemental Data for a list of the assays used).
# [1] = Protein binding by ultracentrifugation, human plasma; assay type: in vitro ADME; conditions: read-out: fu human plasma
# Procedure: Protein binding of 1 µM NDD-713.HCl and -825.HCl in human and rat plasma, as well as human liver microsomes, was assessed by using the ultracentrifugation technique. Frozen human plasma (Australian Red Cross Blood Service, Melbourne, VIC, Australia) and rat plasma (male Sprague-Dawley rats; Charles River, Margate, Kent, United Kingdom) were thawed at 37°C. Human liver microsomes (XenoTech) were suspended in 0.1 M phosphate buffer (pH 7.4) at protein concentrations of 0.4 mg/ml. Samples were collected immediately as stability reference controls. Spiked plasma samples (but not microsome samples) were incubated at 37°C for 1 h. […] NDD-713.HCl and -825.HCl concentrations of noncentrifuged matrix and protein-free supernatant were determined by UPLC-MS relative to calibration standards prepared in the respective matrices. Total concentration (Ctotal) was the average measured concentration in […] samples maintained at 37°C, and unbound concentration (Cunbound) was the average measured concentration in protein-free supernatants from centrifuged samples (n = 3). The compound unbound fraction (fu) was calculated: fu = Cunbound/Ctotal. Compound degradation was assessed by comparing concentrations in noncentrifuged plasma samples that were incubated at 37°C with concentrations measured in the t = 0 noncentrifuged samples. […]
# [2] = Metabolic stability, rat hepatocytes; assay type: in vitro ADME; conditions: hepatocytes
# Procedure: NDD-713.HCl and -825.HCl were incubated (0.02, 0.1, or 0.5 μM at 37°C, 120 min) with human (XenoTech, Kansas City, KS, USA) or rat liver microsomes (BD Biosciences, Brea, CA, USA) at 0.4 mg/ml protein concentration. Metabolic reaction was initiated by addition of NADPH-regenerating system or NADPH-regenerating system with uridine diphosphate glucuronic acid. Samples were quenched at time points by acetonitrile addition. Control samples, which contained neither NADPH, nor uridine diphosphate glucuronic acid, were monitored for degradation. Compound concentrations were determined by ultraperformance LC-MS (UPLC-MS) relative to calibration standards that were prepared in quenched liver microsomes and fitted to exponential decay functions to determine first-order rate constants (k) for substrate depletion. These were used to calculate in vitro intrinsic clearance (CLint) values: CLint = k/microsomal protein content (0.4 mg protein/ml). Metabolic stability assays that used rat liver cytosol (BD Biosciences), human cryopreserved hepatocytes, or rat hepatocytes were carried out similarly. Average viable cell concentrations were determined by Trypan Blue exclusion methods (in the absence of test compounds). Studies were carried out by CDCO.
# hERG potassium channel = hERG potassium channel (Homo sapiens, UniProt Q12809); assay: hERG 3H-astemizole radioligand binding; conditions: 10 µM; concentrations >3000-fold β1-AR affinity
# [3] = PK analysis in male Sprague-Dawley rats; assay type: in vivo; conditions: rat; for AUC(0-t) / half-life / clearance / Vd / Cmax / Tmax / bioavailability: male, Sprague-Dawley; for AUC(0-t) / half-life / clearance / Vd / Cmax / Tmax / AUC0-t/dose: hydrochloride salt forms; for half-life: read-out: t1/2, app (converted); for Vd: read-out: Vss
# Procedure: Blood samples were centrifuged, supernatant plasma was removed, and plasma concentrations of compounds were determined by LC-MS. […] Studies were carried out by CDCO.
# human β1-AR [4] = target: T1, human β1-AR (Homo sapiens, UniProt P08588); assay: CRE-SPAP reporter gene assay in CHO-β1 cells; assay type: cell-based; conditions: agonist mode, n = 5
# T1 construct: expressed in transfected cells
# Procedure: cAMP response element (CRE)–secreted placental alkaline phosphatase (SPAP) production was measured in confluent cells (96-well plates, 5 h incubation at 37°C) as described in Baker ([46]). This assay is a sensitive measure of both cAMP and ERK1/2 MAPK pathways ([47]).
# human β2-AR = target: T2, human β2-AR (Homo sapiens, UniProt P07550); assay: Antagonism of cimaterol-induced 3H-cAMP accumulation in CHO-β2 cells; assay type: cell-based; conditions: cimaterol agonist, mean ± SEM, read-out: Log Kd,β2 (converted)
# T2 construct: expressed in transfected cells
# Procedure: (§1) Confluent cells were examined (24-well plates, 5 h incubation at 37°C) as described in Baker ([45]). Antagonist Kd values were calculated from a rightward shift of the agonist concentration response curve by using the Gaddum equation as previously described ([46]).
# [5] = test system: panel of 80 receptors and ion channels; assay: Cerep in vitro receptor selectivity profiling; assay type: binding; conditions: CGP20712A and LK204-545 at 10 μM, NDD-713 at 4.8 μM, NDD-825 at 2.4 μM
# Procedure: Ki (inhibition constant) was calculated by using the Cheng-Prusoff equation from the mean of duplicate determinations in cell-based receptor radioligand-binding assays. Cerep in vitro pharmacology profiling service was used (see the Supplemental Data for a list of the assays used).
# human β1-AR [6] = target: T1, human β1-AR; assay: Antagonism of cimaterol-induced 3H-cAMP accumulation in CHO-β1 cells; assay type: cell-based
# Procedure: as §1
# T1 sequence (P08588 whole entry): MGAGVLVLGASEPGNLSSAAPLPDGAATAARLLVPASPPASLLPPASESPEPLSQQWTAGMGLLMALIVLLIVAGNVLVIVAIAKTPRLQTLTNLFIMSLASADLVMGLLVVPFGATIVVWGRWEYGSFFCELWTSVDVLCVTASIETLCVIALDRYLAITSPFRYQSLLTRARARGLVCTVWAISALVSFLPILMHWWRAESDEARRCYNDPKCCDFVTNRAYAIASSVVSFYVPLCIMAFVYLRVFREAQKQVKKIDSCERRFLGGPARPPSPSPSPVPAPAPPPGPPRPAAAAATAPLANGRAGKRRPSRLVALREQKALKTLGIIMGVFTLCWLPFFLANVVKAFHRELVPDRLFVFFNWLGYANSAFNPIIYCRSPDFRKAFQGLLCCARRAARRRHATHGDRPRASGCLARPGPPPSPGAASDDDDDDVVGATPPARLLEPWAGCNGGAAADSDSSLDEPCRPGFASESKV
# Chain of 5-HT2A (P28223 whole entry): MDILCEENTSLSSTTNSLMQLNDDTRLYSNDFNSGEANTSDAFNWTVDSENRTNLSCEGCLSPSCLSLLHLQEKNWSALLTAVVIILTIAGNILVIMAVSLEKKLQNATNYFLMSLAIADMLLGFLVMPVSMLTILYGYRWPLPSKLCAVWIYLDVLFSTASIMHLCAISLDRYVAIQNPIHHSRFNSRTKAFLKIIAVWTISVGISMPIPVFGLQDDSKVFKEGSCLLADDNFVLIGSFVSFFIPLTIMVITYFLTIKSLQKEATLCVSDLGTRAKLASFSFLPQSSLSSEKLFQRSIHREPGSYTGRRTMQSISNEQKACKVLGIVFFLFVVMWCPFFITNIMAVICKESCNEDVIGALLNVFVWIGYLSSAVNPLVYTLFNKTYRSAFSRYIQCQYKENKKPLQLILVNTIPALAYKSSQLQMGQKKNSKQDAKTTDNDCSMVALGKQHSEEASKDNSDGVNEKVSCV
# T2 sequence (P07550 whole entry): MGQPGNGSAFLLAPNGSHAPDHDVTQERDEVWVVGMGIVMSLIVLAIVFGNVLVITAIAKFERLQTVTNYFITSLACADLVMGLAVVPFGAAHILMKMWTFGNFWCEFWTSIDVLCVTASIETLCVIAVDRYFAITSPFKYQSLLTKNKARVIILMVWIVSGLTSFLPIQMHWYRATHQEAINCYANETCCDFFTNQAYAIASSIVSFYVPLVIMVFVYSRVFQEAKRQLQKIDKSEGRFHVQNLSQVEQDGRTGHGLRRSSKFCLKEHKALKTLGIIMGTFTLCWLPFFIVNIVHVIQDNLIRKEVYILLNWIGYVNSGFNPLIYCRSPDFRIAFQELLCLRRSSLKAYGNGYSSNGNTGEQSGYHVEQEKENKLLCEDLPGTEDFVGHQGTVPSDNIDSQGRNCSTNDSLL
# Chain of hERG potassium channel (Q12809 whole entry): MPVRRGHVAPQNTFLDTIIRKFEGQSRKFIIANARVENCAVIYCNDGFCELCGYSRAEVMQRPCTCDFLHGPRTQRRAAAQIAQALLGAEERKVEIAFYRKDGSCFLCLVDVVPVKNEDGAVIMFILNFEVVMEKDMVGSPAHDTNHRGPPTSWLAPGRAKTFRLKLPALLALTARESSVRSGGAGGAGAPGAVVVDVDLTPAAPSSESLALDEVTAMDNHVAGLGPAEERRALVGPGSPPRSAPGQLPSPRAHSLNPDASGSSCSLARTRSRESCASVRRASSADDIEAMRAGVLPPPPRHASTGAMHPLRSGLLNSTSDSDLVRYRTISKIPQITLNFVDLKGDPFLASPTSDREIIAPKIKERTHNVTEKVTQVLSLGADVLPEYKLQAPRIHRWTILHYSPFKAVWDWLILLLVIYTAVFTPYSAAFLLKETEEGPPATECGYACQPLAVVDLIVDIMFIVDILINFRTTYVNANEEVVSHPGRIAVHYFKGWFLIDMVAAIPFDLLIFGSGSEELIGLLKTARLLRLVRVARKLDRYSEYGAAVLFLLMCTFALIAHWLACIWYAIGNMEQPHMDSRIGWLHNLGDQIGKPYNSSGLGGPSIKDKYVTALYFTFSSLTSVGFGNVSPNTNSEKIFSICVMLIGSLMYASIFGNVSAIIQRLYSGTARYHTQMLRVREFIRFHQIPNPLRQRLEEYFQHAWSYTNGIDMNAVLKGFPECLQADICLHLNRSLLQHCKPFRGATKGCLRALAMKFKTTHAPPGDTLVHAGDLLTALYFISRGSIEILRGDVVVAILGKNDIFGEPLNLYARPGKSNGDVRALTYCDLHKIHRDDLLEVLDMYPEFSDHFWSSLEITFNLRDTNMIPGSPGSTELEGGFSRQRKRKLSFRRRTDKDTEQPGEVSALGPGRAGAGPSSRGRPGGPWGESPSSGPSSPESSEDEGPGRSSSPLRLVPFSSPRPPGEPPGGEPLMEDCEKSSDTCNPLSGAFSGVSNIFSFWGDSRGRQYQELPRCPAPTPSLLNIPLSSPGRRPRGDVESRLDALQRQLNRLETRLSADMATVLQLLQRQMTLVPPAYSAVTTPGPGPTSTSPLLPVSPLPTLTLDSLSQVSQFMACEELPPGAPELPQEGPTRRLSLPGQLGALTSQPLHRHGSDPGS
compound,measurement,setting,value
O=C1NCc2cc(OCCNC[C@H](O)COc3ccc4c(c3)OC[C@@H](COCC3CC3)O4)ccc21 [NDD-825],β1-selectivity over the 5-HT2A receptor,5-HT2A,1115 fold
same,Ki,"5-HT2A; concentration-response, Cheng-Prusoff",5800 nM
same,"fraction unbound at 1 h, 1 µM",[1],0.01
same,hepatocyte CLint,[2],5 µL/min/1e6 cells
same,Affinity for the hERG channel,hERG potassium channel,no affinity for the hERG channel
same,AUC(0-t),"[3]; plasma, iv, i.v. 2 mg/kg",1.4 µM·h
same,half-life,"[3]; plasma, iv, i.v. 2 mg/kg, mean ± SD n = 3",5.3 ± 0.3 h
same,clearance,"[3]; plasma, iv, i.v. 2 mg/kg, read-out: Plasma CLtotal",54 ± 2 mL/min/kg
same,Vd,"[3]; plasma, iv, i.v. 2 mg/kg",6 ± 0.5 L/kg
same,AUC(0-t),"[3]; plasma, iv, i.v. 6 mg/kg",3.8 ± 0.2 µM·h
same,half-life,"[3]; plasma, iv, i.v. 6 mg/kg, mean ± SD n = 3",7.3 ± 0.1 h
same,clearance,"[3]; plasma, iv, i.v. 6 mg/kg, read-out: Plasma CLtotal",59 ± 1 mL/min/kg
same,Vd,"[3]; plasma, iv, i.v. 6 mg/kg",5 L/kg
same,AUC(0-t),"[3]; plasma, iv, i.v. 20 mg/kg",12.1 ± 0.3 µM·h
same,half-life,"[3]; plasma, iv, i.v. 20 mg/kg, mean ± SD n = 3",7.1 ± 1.3 h
same,clearance,"[3]; plasma, iv, i.v. 20 mg/kg, read-out: Plasma CLtotal",55 ± 1 mL/min/kg
same,Vd,"[3]; plasma, iv, i.v. 20 mg/kg",4.7 L/kg
same,AUC(0-t),"[3]; plasma, po, p.o. 2 mg/kg",0.4 ± 0.1 µM·h
same,Cmax,"[3]; plasma, po, p.o. 2 mg/kg",100 nM
same,Tmax,"[3]; plasma, po, p.o. 2 mg/kg",1.38 h
same,half-life,"[3]; plasma, po, p.o. 2 mg/kg",9.8 ± 0.2 h
same,AUC(0-t),"[3]; plasma, po, p.o. 10 mg/kg",3 ± 0.4 µM·h
same,Cmax,"[3]; plasma, po, p.o. 10 mg/kg",800 ± 100 nM
same,Tmax,"[3]; plasma, po, p.o. 10 mg/kg",0.75 h
same,half-life,"[3]; plasma, po, p.o. 10 mg/kg",4.6 ± 0.1 h
same,AUC(0-t),"[3]; plasma, po, p.o. 20 mg/kg",11.9 ± 3 µM·h
same,Cmax,"[3]; plasma, po, p.o. 20 mg/kg",1400 ± 300 nM
same,Tmax,"[3]; plasma, po, p.o. 20 mg/kg",3.1 h
same,half-life,"[3]; plasma, po, p.o. 20 mg/kg",3.3 ± 0.2 h
same,bioavailability,"[3]; plasma, po, 2 mg/kg",32 ± 5%
same,bioavailability,"[3]; plasma, po, 10 mg/kg",45 ± 6%
same,bioavailability,"[3]; plasma, po, 20 mg/kg",89 ± 24%
same,clearance,"[3]; whole blood, iv, i.v. 2 mg/kg, read-out: Blood CLtotal",39 ± 1 mL/min/kg
same,clearance,"[3]; whole blood, iv, i.v. 6 mg/kg, read-out: Blood CLtotal",42 ± 1 mL/min/kg
same,clearance,"[3]; whole blood, iv, i.v. 20 mg/kg, read-out: Blood CLtotal",39 ± 1 mL/min/kg
same,Unbound plasma level at Cmax below β2-AR Kd,[3]; 20 mg/kg p.o.,at least 5 fold
same,Likely duration of β1-AR blockade,"[3]; 20 mg/kg p.o., judged from PK profile vs Kd",> 24 h
same,AUC0-t/dose,[3]; i.v. 2 mg/kg,0.6 ± 0 μM ⋅ h/(mg/kg)
same,AUC0-t/dose,[3]; i.v. 6 mg/kg,0.6 ± 0 μM ⋅ h/(mg/kg)
same,AUC0-t/dose,[3]; i.v. 20 mg/kg,0.6 ± 0 μM ⋅ h/(mg/kg)
same,AUC0-t/dose,[3]; p.o. 2 mg/kg,0.2 ± 0 μM ⋅ h/(mg/kg)
same,AUC0-t/dose,[3]; p.o. 10 mg/kg,0.3 ± 0.1 μM ⋅ h/(mg/kg)
same,AUC0-t/dose,[3]; p.o. 20 mg/kg,0.5 ± 0.2 μM ⋅ h/(mg/kg)
same,CRE-SPAP production relative to isoprenaline maximum,human β1-AR [4],no responses were observed
same,Kd,human β2-AR,1780 nM
same,Off-target binding in receptor and ion channel panel,[5],poor affinity for most other GPCRs and ion channels
same,Schild slope,"human β1-AR [6]; CHO-β1 cells, 3 antagonist concentrations, 1 = competitive antagonism",1.04 ± 0.02
same,Kd,"human β1-AR [6]; Gaddum equation, cimaterol agonist, mean ± SEM, read-out: Log Kd,β1 (converted)",1.02 nM
same,"SI1b (in vitro inhibition of functional response) = Kd,β2/Kd,β1","human β1-AR [6]; Kd values from antagonism of cimaterol-induced 3H-cAMP accumulation, Table 2",1738
same,"β1 vs. β2 selectivity Kd,β2/Kd,β1",human β1-AR [6]; from antagonism of cimaterol-induced 3H-cAMP accumulation,1738

# — paper PMC5471521, “Novel selective β1-adrenoceptor antagonists for concomitant cardiovascular and respiratory disease” (The FASEB Journal, 2017)
